Experimental data from US9980943B2, “Methods of treating muscular dystrophy” (BOARD OF REGENTS OF THE NEVADA SYSTEM OF HIGHER EDUCATION, …, priority 2013, dated 2018).

Legend:
Assay type in all cases: cell-based, mouse
[1] = tested on: α7 integrin (LacZ reporter in α7βgal+/− myoblasts); assay: Myoblast α7+/LacZ integrin FDG assay (Burkin assay in myoblasts, 96-well); details: α7+/LacZ myoblasts, 96-well
[2] = tested on: α7 integrin (LacZ reporter in α7+/LacZ myotubes); assay: Myotube α7 integrin FDG assay (Burkin assay in myotubes, 96-well); details: myotubes
[3] = tested on: β-galactosidase in CMV-LacZ C2C12 myoblasts; assay: CMV-LacZ secondary screen in C2C12 myoblasts (β-Gal stabilizing assay); details: CMV-LacZ C2C12 myoblasts
Summary of the method: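 A secondary screen identifies compounds that stabilize β-gal independently of the native promoter, using CMV-LacZ C2C12 cells. Curves span 0.5–40 μM at six levels, in duplicate.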

[4] = tested on: β-galactosidase in CMV-LacZ C2C12 myotubes; assay: CMV-LacZ secondary screen in C2C12 myotubes (β-Gal stabilizing assay); details: C2C12 CMV-LacZ myotubes, fold relative to DMSO
Summary of the method: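 β-Gal level was the read-out, measured in a clonal C2C12 line expressing LacZ from a CMV promoter. Dose-response curves used six concentrations, 0.5 μM up to 40 μM, with duplicate points.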

Row | SMILES | Burkin Assay in Myoblasts, signal relative to DMSO ([1]; 0.5 uM) | Burkin Assay in Myoblasts, signal relative to DMSO ([1]; 1 uM) | Burkin Assay in Myoblasts, signal relative to DMSO ([1]; 5 uM) | Burkin Assay in Myoblasts, signal relative to DMSO ([1]; 10 uM) | Burkin Assay in Myoblasts, signal relative to DMSO ([1]; 20 uM) | Burkin Assay in Myoblasts, signal relative to DMSO ([1]; 40 uM) | Burkin Assay in Myotubes, α7 integrin LacZ reporter signal relative to DMSO ([2]; 0.5 uM) | Burkin Assay in Myotubes, α7 integrin LacZ reporter signal relative to DMSO ([2]; 1 uM) | Burkin Assay in Myotubes, α7 integrin LacZ reporter signal relative to DMSO ([2]; 5 uM) | Burkin Assay in Myotubes, α7 integrin LacZ reporter signal relative to DMSO ([2]; 10 uM) | Burkin Assay in Myotubes, α7 integrin LacZ reporter signal relative to DMSO ([2]; 20 uM) | Burkin Assay in Myotubes, α7 integrin LacZ reporter signal relative to DMSO ([2]; 40 uM) | CMV-LACZ in Myoblasts (β-galactosidase activity relative to DMSO) ([3]; 0.5 uM) | CMV-LACZ in Myoblasts (β-galactosidase activity relative to DMSO) ([3]; 1 uM) | CMV-LACZ in Myoblasts (β-galactosidase activity relative to DMSO) ([3]; 5 uM) | CMV-LACZ in Myoblasts (β-galactosidase activity relative to DMSO) ([3]; 10 uM) | CMV-LACZ in Myoblasts (β-galactosidase activity relative to DMSO) ([3]; 20 uM) | CMV-LACZ in Myoblasts (β-galactosidase activity relative to DMSO) ([3]; 40 uM) | CMV-LACZ in Myotubes, signal relative to DMSO ([4]; 0.5 uM) | CMV-LACZ in Myotubes, signal relative to DMSO ([4]; 1 uM) | other results
1 | CCCN(C(=O)c1ccc(S(=O)(=O)N2CCCC2)cc1)C1CCS(=O)(=O)C1 (stereo not drawn) [MLS002161853-01] | 0.8569 | 0.8278 | 0.9386 | 1.1978 | 1.073 | 0.9354 | 0.8761 | 0.8092 | 0.9889 | 1.16 | 0.919 | 0.9353 | 1.0131 | 0.8734 | 0.8819 | 0.9436 | 1.0922 | 0.9348 | 1.0524 | 0.8352 | CMV-LACZ in Myotubes, signal relative to DMSO ([4]; 5 uM): 1.1122; CMV-LACZ in Myotubes, signal relative to DMSO ([4]; 10 uM): 0.9103; CMV-LACZ in Myotubes, signal relative to DMSO ([4]; 20 uM): 1.2341; CMV-LACZ in Myotubes, signal relative to DMSO ([4]; 40 uM): 1.0647
2 | CN1C(=O)N(CC(=O)N2CCN(S(=O)(=O)c3ccc(Cl)s3)CC2)C(=O)C12CCCCC2 [MLS002162890-01] | 1.107 | 1.034 | 1.1338 | 1.261 | 0.694 | 0.4924 | 1.051 | 1.185 | 0.9351 | 1.1501 | 0.7452 | 0.803 | 0.8392 | 0.8713 | 0.9701 | 0.9939 | 0.7603 | 0.9507 | 1.0682 | 1.0191 | CMV-LACZ in Myotubes, signal relative to DMSO ([4]; 5 uM): 1.1237; CMV-LACZ in Myotubes, signal relative to DMSO ([4]; 10 uM): 1.0530; CMV-LACZ in Myotubes, signal relative to DMSO ([4]; 20 uM): 1.0140; CMV-LACZ in Myotubes, signal relative to DMSO ([4]; 40 uM): 1.0170
3 | CCN(CC(=O)NCc1cccs1)C(=O)COc1ccc(C(N)=O)cc1 [MLS002163101-01] | 0.9552 | 0.9442 | 0.9699 | 1.251 | 0.9457 | 0.9775 | 1.045 | 0.9075 | 1.101 | 1.302 | 0.7782 | 0.9761 | 0.9991 | 1.0317 | 1.0262 | 1.0313 | 0.9644 | 1.1556 | 1.0533 | 1.1400 | CMV-LACZ in Myotubes, signal relative to DMSO ([4]; 5 uM): 0.8302; CMV-LACZ in Myotubes, signal relative to DMSO ([4]; 10 uM): 0.8407; CMV-LACZ in Myotubes, signal relative to DMSO ([4]; 20 uM): 0.9212; CMV-LACZ in Myotubes, signal relative to DMSO ([4]; 40 uM): 1.5447
